In PMC9182007, “Statistical Methods in the Study of Protein Binding and Its Relationship to Drug Bioavailability in Breast Milk” (Molecules, 2022):
Read-outs that look alike come from different tables or passages of the source.

Columns and labels:
[1] = molecular target: T1, bovine serum albumin (BSA) (Bos taurus, UniProt P02769); test: RP TLC on plates impregnated with bovine serum albumin; assay type: binding; conditions: for RP (Rf value from the RP plate impregnated with 2 mg/mL BSA solution): Table S8, external group; for RP (Rf, BSA-impregnated RP plate): Table S4, RP plate impregnated with 2 mg/mL BSA, pH 7.4 mobile phase
T1 construct: purchased Sigma Aldrich

[2] = NP TLC on non-impregnated control plates; assay type: physicochemical; conditions: for CNP (Rf value from the non-impregnated NP plate, control): Table S8, external group; for CNP (Rf, control NP plate): Table S3, non-impregnated NP plate, acetonitrile/acetate buffer pH 7.4/methanol 60:20:20
[3] = molecular target: T1, bovine serum albumin (BSA); test: NP TLC on plates impregnated with bovine serum albumin; assay type: binding; conditions: for NP (Rf value from the NP plate impregnated with 2 mg/mL BSA solution): Table S8, external group; for NP (Rf, BSA-impregnated NP plate): Table S3, NP plate impregnated with 2 mg/mL BSA, pH 7.4 mobile phase
[4] = RP TLC on non-impregnated control plates; assay type: physicochemical; conditions: for CRP (Rf value from the non-impregnated RP plate, control): Table S8, external group; for CRP (Rf, control RP plate): Table S4, non-impregnated RP plate, acetonitrile/acetate buffer pH 7.4/methanol 60:20:20
[5] = molecular target: human serum albumin (HSA) (Homo sapiens, UniProt P02768); conditions: for k HSA: Table S5, retention factor, HSA column, pH 7.4, 25 degrees Celsius
[6] = HPLC on immobilized artificial membrane column (HPLCIAM); assay type: physicochemical; conditions: for kIAM / log kIAM: Table S9, external group; for log k IAM: Table S5, IAM column, pH 7.4; for k IAM: Table S5, retention factor, IAM column, phosphate buffer pH 7.4/acetonitrile 80:20
plasma protein = conditions: ref DrugBank [7], cited from earlier work
[7] = Table S1, plasma protein binding given as fraction
[8] = Table S6, external group (n = 38), given as fraction
[9] = human, immobilized hsa column, pH 7.4

Chain of human serum albumin (HSA) (P02768 25-609): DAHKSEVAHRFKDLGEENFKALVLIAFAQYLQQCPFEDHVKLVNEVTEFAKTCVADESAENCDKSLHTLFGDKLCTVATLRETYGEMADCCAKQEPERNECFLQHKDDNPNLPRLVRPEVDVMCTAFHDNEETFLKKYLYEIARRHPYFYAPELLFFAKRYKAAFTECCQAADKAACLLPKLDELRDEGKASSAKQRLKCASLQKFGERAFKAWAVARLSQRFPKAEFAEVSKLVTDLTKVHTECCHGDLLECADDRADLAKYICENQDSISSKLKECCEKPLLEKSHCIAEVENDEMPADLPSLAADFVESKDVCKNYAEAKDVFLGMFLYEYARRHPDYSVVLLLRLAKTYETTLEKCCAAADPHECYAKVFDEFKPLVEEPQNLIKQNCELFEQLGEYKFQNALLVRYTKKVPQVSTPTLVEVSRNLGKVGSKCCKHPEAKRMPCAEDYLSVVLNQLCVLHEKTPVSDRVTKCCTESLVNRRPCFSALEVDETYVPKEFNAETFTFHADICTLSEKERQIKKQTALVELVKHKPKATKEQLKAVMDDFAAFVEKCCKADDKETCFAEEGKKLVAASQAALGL
T1 sequence (P02769 25-607): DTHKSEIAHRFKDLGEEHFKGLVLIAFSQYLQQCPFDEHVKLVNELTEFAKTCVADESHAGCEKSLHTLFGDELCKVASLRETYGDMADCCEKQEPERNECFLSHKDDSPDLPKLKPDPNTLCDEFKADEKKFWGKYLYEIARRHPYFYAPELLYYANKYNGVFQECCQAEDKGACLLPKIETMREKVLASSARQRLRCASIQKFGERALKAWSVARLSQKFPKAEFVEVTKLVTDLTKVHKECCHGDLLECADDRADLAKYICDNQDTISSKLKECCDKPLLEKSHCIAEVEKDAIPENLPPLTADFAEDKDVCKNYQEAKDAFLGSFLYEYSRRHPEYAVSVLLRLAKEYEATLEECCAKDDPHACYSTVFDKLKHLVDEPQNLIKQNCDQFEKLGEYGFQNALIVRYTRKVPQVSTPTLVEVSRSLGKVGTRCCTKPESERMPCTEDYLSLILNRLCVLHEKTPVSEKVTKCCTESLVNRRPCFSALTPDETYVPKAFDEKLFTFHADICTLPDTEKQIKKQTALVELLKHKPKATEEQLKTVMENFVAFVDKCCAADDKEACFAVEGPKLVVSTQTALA

Row | CNP (Rf, control NP plate) [2] | NP (Rf, BSA-impregnated NP plate) [3] | CRP (Rf, control RP plate) [4] | log k IAM [6] | k IAM [6] | Structure (SMILES) | RP (Rf, BSA-impregnated RP plate) [1] | log k HSA ([5]; Table S5, HSA, pH 7.4) | k HSA [5] | PB (plasma protein; [7]) | further results
1 | – | – | – | – | – | CCC1(c2ccccc2)C(=O)NCNC1=O [primidone] | – | – | – | – | RP (Rf value from the RP plate impregnated with 2 mg/mL BSA solution) [1]: 0.97; CNP (Rf value from the non-impregnated NP plate, control) [2]: 0.90; NP (Rf value from the NP plate impregnated with 2 mg/mL BSA solution) [3]: 0.93; CRP (Rf value from the non-impregnated RP plate, control) [4]: 0.93; kHSA ([5]; Table S9, external group): 0.22; log kHSA ([5]; Table S9, external group): -0.66; kIAM [6]: 2.02; log kIAM [6]: 0.31
2 | 0.66 | 0.65 | 0.61 | 1.38 | 23.74 | O=C(CCCN1CCC(O)(c2ccc(Cl)cc2)CC1)c1ccc(F)cc1 [haloperidol] | 0.64 | 0.68 | 4.8 | 0.92 | –
3 | 0.97 | 0.98 | 0.63 | 0.84 | 6.92 | C[C@]12CC[C@@H]3c4ccc(OC(=O)c5ccccc5)cc4CC[C@H]3[C@@H]1CC[C@@H]2O [estradiol benzoate] | 0.62 | – | – | 0.95 | –
4 | 0.99 | 0.97 | 0.89 | 0.03 | 1.08 | O=C(N[C@H](CO)[C@H](O)c1ccc([N+](=O)[O-])cc1)C(Cl)Cl [chloramphenikol] | 0.89 | -0.21 | 0.61 | – | –
5 | 0.92 | 0.92 | 0.90 | 0.04 | 1.11 | CCCCCOC(=O)Nc1nc(=O)n([C@@H]2O[C@H](C)[C@@H](O)[C@H]2O)cc1F [capecitabine] | 0.89 | – | – | 0.6 | –
6 | – | – | – | – | – | COc1cc(Cc2cnc(N)nc2N)cc(OC)c1OC [trimethoprim] | – | – | – | – | CNP (Rf value from the non-impregnated NP plate, control) [2]: 0.57; NP (Rf value from the NP plate impregnated with 2 mg/mL BSA solution) [3]: 0.59; PB (plasma protein; [8]): 0.44
7 | 0.99 | 0.99 | 0.79 | 1.47 | 29.40 | C[C@]12CC[C@@H]3c4ccc(O)cc4CC[C@H]3[C@@H]1CCC2=O [estrone] | – | – | – | 0.95 | –
8 | – | – | – | – | – | CC(=O)Nc1nnc(S(N)(=O)=O)s1 [acetazolamid] | – | – | – | – | RP (Rf value from the RP plate impregnated with 2 mg/mL BSA solution) [1]: 0.96; CRP (Rf value from the non-impregnated RP plate, control) [4]: 0.97; kHSA [5]: 0.74; log kHSA [5]: -0.13; PB (plasma protein; [8]): 0.98
9 | – | – | – | – | – | CO[C@H]1/C=C/O[C@@]2(C)Oc3c(C)c(O)c4c(O)c(c(/C=N/N5CCN(C)CC5)c(O)c4c3C2=O)NC(=O)/C(C)=C\C=C\[C@H](C)[C@H](O)[C@@H](C)[C@@H](O)[C@@H](C)[C@H](OC(C)=O)[C@@H]1C [rifampicin] | – | – | – | – | RP (Rf value from the RP plate impregnated with 2 mg/mL BSA solution) [1]: 0.94; CNP (Rf value from the non-impregnated NP plate, control) [2]: 0.73; NP (Rf value from the NP plate impregnated with 2 mg/mL BSA solution) [3]: 0.77; CRP (Rf value from the non-impregnated RP plate, control) [4]: 0.95; kHSA ([5]; Table S9, external group): 0.03; log kHSA [5, 9]: -1.53; kIAM [6]: 8.37; log kIAM [6]: 0.92; PB (plasma protein; [8]): 0.89
10 | 0.27 | – | 0.85 | 0.22 | 1.66 | CCN1CCCC1CNC(=O)c1cc(S(N)(=O)=O)ccc1OC (centres unmarked) [sulpiride] | – | – | – | 0.4 | –
11 | – | – | – | – | – | CC(C)(C)NC[C@H](O)COc1nsnc1N1CCOCC1 [timolol] | – | – | – | – | RP (Rf value from the RP plate impregnated with 2 mg/mL BSA solution) [1]: 0.97; CNP (Rf value from the non-impregnated NP plate, control) [2]: 0.34; NP (Rf value from the NP plate impregnated with 2 mg/mL BSA solution) [3]: 0.32; CRP (Rf value from the non-impregnated RP plate, control) [4]: 0.97; kHSA ([5]; Table S9, external group): 0.13; kIAM [6]: 2.88; log kIAM [6]: 0.46; PB (plasma protein; [8]): 0.10
12 | 0.96 | 0.96 | – | 0.12 | 1.32 | NS(=O)(=O)c1cc(C2(O)NC(=O)c3ccccc32)ccc1Cl (centres unmarked) [chlortalidone] | – | – | 0.85 | 0.75 | –
13 | 0.96 | 0.96 | 0.71 | 1.54 | 34.99 | CC(=O)[C@H]1CC[C@H]2[C@@H]3CCC4=CC(=O)CC[C@]4(C)[C@H]3CC[C@]12C [progesterone] | 0.68 | 0.76 | 5.7 | 0.975 | –
14 | 0.54 | 0.50 | – | 1.45 | 28.09 | CC(C)NCC(O)COc1cccc2ccccc12 (centres unmarked) [propranolol] | – | – | – | – | –

Row | Structure (SMILES) | CNP (Rf, control NP plate) [2] | NP (Rf, BSA-impregnated NP plate) [3] | CRP (Rf, control RP plate) [4] | log k IAM [6] | k IAM [6] | RP (Rf, BSA-impregnated RP plate) [1] | log k HSA ([5]; Table S5, HSA, pH 7.4) | k HSA [5] | PB (plasma protein; [7]) | further results
15 | CN(C)CCc1c[nH]c2ccc(C[C@H]3COC(=O)N3)cc12 [zolmitriptane] | 0.31 | 0.29 | 0.86 | 0.52 | 3.30 | 0.86 | 0.23 | 1.7 | 0.25 | –
16 | C=CCN1C[C@H](C(=O)N(CCCN(C)C)C(=O)NCC)C[C@@H]2c3cccc4[nH]cc(c34)C[C@H]21 [carbegoline] | 0.68 | 0.68 | 0.68 | 1.23 | 17.05 | 0.68 | 0.51 | 3.23 | 0.41 | –
17 | COc1ccc(CCN2CCC(Nc3nc4ccccc4n3Cc3ccc(F)cc3)CC2)cc1 [astemizol] | 0.62 | 0.61 | 0.65 | 1.42 | 26.27 | 0.62 | – | 13.32 | 0.967 | log k HSA [5, 9]: 1.12
18 | CC[C@H]1OC(=O)[C@H](C)[C@@H](O[C@H]2C[C@@](C)(OC)[C@@H](O)[C@H](C)O2)[C@H](C)[C@@H](O[C@@H]2O[C@H](C)C[C@H](N(C)C)[C@H]2O)[C@](C)(O)C[C@@H](C)/C(=N\OCOCCOC)[C@H](C)[C@@H](O)[C@]1(C)O [roxitromicin] | 0.91 | 0.92 | 0.80 | – | – | 0.79 | 0.01 | 1.03 | 0.96 | –
19 | CN(C)CCOC(c1ccccc1)c1ccccc1 [diphenhydramin] | 0.42 | 0.33 | 0.58 | 0.56 | 3.66 | 0.54 | 0.27 | 1.88 | 0.985 | –
20 | OC(CCN1CCCCC1)(c1ccccc1)C1CC2C=CC1C2 (centres unmarked) [biperiden] | 0.68 | 0.65 | 0.87 | 1.62 | 41.47 | 0.85 | – | 0.58 | 0.6 | log k HSA [5, 9]: -0.24
